Source: US20250195490A1, “ALPHA-METHYLENE AND AMINOMETHYL LACTONES AND LACTAMS FOR TREATMENT OF CLOSTRIDIOIDES DIFFICILE INFECTION (CDI)” (Purdue Research Foundation, priority 2022, published 2025)

Columns and labels:
E. faecalis (VRE) = assay: microbe, parasite or virus in culture; format: cell-based, Enterococcus faecalis; conditions: aerobic, 37° C., at least 18 hours
Description: Method: The minimum inhibitory concentration (MIC) of the compounds and control drugs, linezolid (antibiotic), vancomycin (antibiotic), 5-fluorocytosine (5-FC, antifungal drug), and fluconazole (antifungal drug) was determined using the broth microdilution method according to the guidelines outlined by the Clinical and Laboratory Standards Institute (CLSI) against clinically relevant bacterial (methicillin-resistant Staphylococcus aureus (MRSA), vancomycin-resistant Enterococcus faecalis (VRE), vancomycin-resistant Enterococcus faecium (VRE), Clostridioides difficile and Escherichia coli) and fungal (Candida albicans) strains. A solution equivalent to 0.5 McFarland standard was prepared from each strain and diluted in cation-adjusted Mueller-Hinton broth (for S. aureus and E. coli), tryptone soy broth (for E. faecalis), or brain heart infusion broth (for E. faecium) to achieve a bacterial inoculum of about 5×10^5 CFU/mL. C. difficile strains were cultured in brain heart infusion broth supplemented with hemin and vitamin K. C. albicans was diluted in RPMI medium supplemented with 3-(N-morpholino) propanesulfonic acid to achieve a fungal concentration of about 1.5×10^3 CFU/mL. Compounds and control drugs were added in the first row of the 96-well plates and diluted with media containing bacteria (to achieve a concentration gradient ranging from 128 to 1 μg/mL). For MRSA, VRE, and E. coli strains, plates were then incubated aerobically at 37° C. for at least 18 hours. C. albicans was incubated aerobically at 37° C. for 24 hours. Plates containing C. difficile were incubated anaerobically at […] for 48 hours.

C. difficile ATCC 43255 = assay: Antibiotic-induced C. difficile-associated diarrhea mouse model; format: in vivo, C57BL/6 mice; conditions: 10 mg/kg by gavage daily for 5 days; two mouse models (protocols A and B)
Description: Preliminary in vivo experiments were carried out in two mouse models of antibiotic-induced C. difficile-associated diarrhea and two recurrence models to ensure the feasibility of using this new class of antibiotic orally against C. difficile infection.
Groups of 12-weeks-old female C57BL/6 mice were sensitized to CDI with two different protocols. A—Mice were given antibiotic cocktail containing gentamicin (0.035 mg/mL), kanamycin (0.4 mg/ml), metronidazole (0.215 mg/mL), colistin (850 U/mL), and vancomycin (0.045 mg/mL) in drinking water for 5 days. Then mice were treated with clindamycin (10 mg/kg) two days after withdrawal of the antibiotic cocktail. One day after clindamycin treatment, mice were infected orally with 1.9×10^6 CFU spore suspension of C. difficile ATCC 43255 [32]. Two hours after infection, animals were divided into groups (n=10), and groups received either vehicle (sterile water), Compound 27 (10 mg/kg), or vancomycin (10 mg/kg) by gavage daily for 5 days. B— In the second protocol mice were sensitized to CDI with cefoperazone (1.5 mg/mL) in the drinking water for 10 days. Afterwards, mice were switched to regular water for 2 days, followed by injecting clindamycin (10 mg/kg) intraperitoneally. One day after clindamycin treatment, mice were infected and treated as group A above.

[1] = In vivo safety profile and toxicity (maximum tolerated dose) in mice
Description: Aminomethyllactone 27 was evaluated for any possible toxicity at oral doses higher than the anticipated dose that will be used for antimicrobial efficacy. The maximum tolerated dose (MTD) in mice was calculated and was expected to be several folds higher than therapeutic dose. The MTD is a dose that produces neither mortality nor more than a 10% decrement in body weight nor clinical signs of toxicity or a significant change in renal and/or hepatic function in the survivors. Having shown that 10 mg/kg in mice is not toxic in our initial mouse model studies, 10, 25, 50, 100, 200, 400 mg/kg doses of 27 were chosen, each dose was given one time to one mouse, and the mice were observed daily for 14 days for body weight gain, clinical signs of abnormality, and renal and hepatic function.
At the end of the study, all animals appeared to be healthy and have good body weight. They were then euthanized, and the major organ (heart, liver, lung, kidney, spleen, and intestines) tissues were harvested for histological examination of toxicity. The evaluator was blinded to the treatment status of each mouse at the time of examination. […] Overall, 27 appears to be non-toxic to mice.

In the case of `COc1cc(C2OC(=O)C(CN3CCCCC3)C2c2ccccc2Br)ccc1OCc1ccccc1` (racemic) [Compound 27], the “MIC E. faecalis (VRE)” value (E. faecalis (VRE)) is reported as greater than 128 µg/mL, the protection (C. difficile ATCC 43255) is reported as 100% and the “toxicity in initial mouse model studies” value ([1]; 10 mg/kg in mice) is reported as “not toxic”. The “histological examination of major organ tissues” value ([1]; heart, liver, lung, kidney, spleen, intestines, end of 14-day study) was “within normal histologic limits” and the toxicity to mice ([1]; single oral doses 10, 25, 50, 100, 200, 400 mg/kg, observed 14 days) was “non-toxic”.
With `C=C1C(=O)O[C@H](c2ccccc2O)[C@@H]1c1cccc(C#N)c1` (racemic) [Compound 50] the “MIC E. faecalis (VRE)” value (E. faecalis (VRE)) was greater than 128 µg/mL.
Work on `CN[C@H](CC(C)C)C(=O)N[C@H]1C(=O)N[C@@H](CC(N)=O)C(=O)N[C@H]2C(=O)N[C@H]3C(=O)N[C@H](C(=O)N[C@H](C(=O)O)c4cc(O)cc(O)c4-c4cc3ccc4O)[C@H](O)c3ccc(c(Cl)c3)Oc3cc2cc(c3O[C@@H]2O[C@H](CO)[C@@H](O)[C@H](O)[C@H]2O[C@H]2C[C@](C)(N)[C@H](O)[C@H](C)O2)Oc2ccc(cc2Cl)[C@H]1O` [Vancomycin, reference compound] yielded a protection (C. difficile ATCC 43255) of 100%.
